System: ABUTH (Abutilon theophrasti, velvetleaf)
Assay: Pre-emergence soil-applied mixtures, greenhouse
Format: in vivo, Abutilon theophrasti Medik.
Description: Seeds or nutlets of the desired test plant species were planted in a soil matrix prepared by mixing a loam soil (32 percent silt, 23 percent clay, and 45 percent sand, with a pH of about 6.5 and an organic matter content of about 1.9 percent) and calcareous grit in an 80 to 20 ratio. The soil matrix was contained in plastic pots with a volume of 1 quart and a surface area of 83.6 square centimeters (cm^2).
Treatments consisted of the benzyl ester of 4-amino-3-chloro-5-fluoro-6-(4-chloro-2-fluoro-3-methoxy-phenyl)pyridine-2-carboxylic acid (compound A) formulated as an SC (suspension concentrate) and various herbicidal components alone and in combination. Forms of compound A were applied on an acid equivalent basis.
Other herbicidal components were applied on an acid equivalent or active ingredient basis and included the PSII-inhibiting herbicides, atrazine formulated as Atrazine® 90WDG, metribuzin formulated as Metribuzin 75DF, simazine formulated as Princep Caliber 90, tebuthiuron formulated as Spike 80DF, cyanazine (technical grade material), hexazinone (technical grade material), linuron (technical grade material), terbuthylazine (technical grade material), and diuron formulated as Diuron 4L.
Treatment requirements were calculated based upon the rates being tested, the concentration of active ingredient or acid equivalent in the formulation, and a 12 mL application volume at a rate of 187 L/ha.
For treatments comprised of formulated compounds, measured amounts of compounds were placed individually in 25 mL glass vials and diluted in a volume of 1.25% (v/v) Agri-Dex® crop oil concentrate (COC) to obtain 12× stock solutions. […] Application solutions were prepared by adding an appropriate amount of each stock solution (e.g., 1 mL) and diluted to the appropriate final concentrations with the addition of 10 mL of an aqueous mixture of 1.25% (v/v) COC so that the final spray solutions contained 1.25% (v/v) COC.
For treatments comprised of technical compounds, weighed amounts can be placed individually in 25 mL glass vials and dissolved in a volume of 97:3 (v/v) acetone/DMSO to obtain 12× stock solutions. […] Application solutions can be prepared by adding an appropriate amount of each stock solution (e.g., 1 mL) and diluted to the appropriate final concentrations with the addition of 10 mL of an aqueous mixture of 1.5% (v/v) COC so that the final spray solutions contain 1.25% (v/v) COC. When technical materials are used, the concentrated stock solutions can be added to the spray solutions so that the final acetone and DMSO concentrations of the application solutions are 16.2% and 0.5%, respectively.
For treatments comprised of formulated and technical compounds, weighed amounts of the technical materials can be placed individually in 25 mL glass vials and dissolved in a volume of 97:3 (v/v) acetone/DMSO to obtain 12× stock solutions, and measured amounts of the formulated compounds can be placed individually in 25 mL glass vials and diluted in a volume of 1.5% (v/v) COC or water to obtain 12× stock solutions. […] Application solutions can be prepared by adding an appropriate amount of each stock solution (e.g., 1 mL) and diluted to the appropriate final concentrations with the addition of an appropriate amount of an aqueous mixture of 1.5% (v/v) COC so that the final spray solutions contain 1.25% (v/v) COC. […]

COc1c(Cl)ccc(-c2nc(C(=O)OCc3ccccc3)c(Cl)c(N)c2F)c1F [Compound A Benzyl Ester, benzyl ester of 4-amino-3-chloro-5-fluoro-6-(4-chloro-2-fluoro-3-methoxy-phenyl)pyridine-2-carboxylic acid]
Visual Weed Control (%)-29 DAA ABUTH Obs (Compound A Benzyl Ester 16 g ae/ha): 65% | Visual Weed Control (%)-29 DAA ABUTH Obs (Compound A Benzyl Ester 32 g ae/ha): 93%

From patent US8912121B2, “Herbicidal compositions comprising 4-amino-3-chloro-5-fluoro-6-(4-chloro-2-fluoro-3-methoxyphenyl)pyridine-2-carboxylic acid or a derivative thereof and certain PS II inhibitors” (Dow Agrosciences LLC, priority 2012, dated 2014)
